Laboratory results taken from US20110182871A1, “NOVEL MICROORGANISM AND PLANT DISEASE CONTROL AGENT USING THE MICROORAGNISM” (UNIVERSITY OF YAMANASHI, priority 2008, published 2011).

Assays:
[1] = tested on: B. subtilis used in a Botokiller water dispersible powder; assay: Drug resistance test: growth of the bacteria constituting a Botokiller water dispersible powder on YBS medium containing a chemical pesticide; assay type: cell-based, Bacillus subtilis; details: 37° C., 2 days
Experimental: (§1) In this example, a test for resistance of Bacillus subtilis strain KS1 to chemical pesticides was performed. First, the YBS medium (one containing yeast extract and meat extract in agar) containing the chemical pesticide of interest was prepared in a petri dish. The concentration (ppm) of the chemical pesticide at this time was the same as a general application concentration. Next, Bacillus subtilis strain KS1 was smeared on the surface of the above-mentioned medium containing the chemical pesticide and incubated at 37° C. for 2 days. As a control area, a test for resistance of Bacillus subtilis isolated from a Botokiller water dispersible powder to chemical pesticides was performed in parallel. In this case, the suspension of the Botokiller water dispersible powder was spread on the YBS medium and the bacteria that appeared after overnight incubation at 37° C. were considered as the bacteria constituting a Botokiller water dispersible powder. In the resistance test, the bacteria constituting a Botokiller water dispersible powder were smeared on the surface of the medium containing a chemical pesticide and incubated at 37° C. for 2 days, as is the case with the above-mentioned Bacillus subtilis strain KS1. […]

[2] = tested on: Bacillus subtilis strain KS1; assay: Drug resistance test: growth of strain KS1 on YBS medium containing a chemical pesticide; assay type: cell-based; details: 37° C., 2 days
Experimental: as §1

For `S=C([S-])NCCNC(=S)[S-].[Mn+2]` [Maneb], the “Resistance of the bacteria constituting a Botokiller water dispersible powder to the chemical pesticide (in words)” value [1] was “showed no resistance” and the “Resistance of Bacillus subtilis strain KS1 to the chemical pesticide (in words)” value [2] was “showed resistance”.
